Data as given in patent US20110105436A1, “HETEROARYL COMPOUNDS, COMPOSITIONS, AND METHODS OF USE IN CANCER TREATMENT” (AUCKLAND UNISERVICES LIMITED, priority 2008, published 2011).

Tests used:
RCC4 cells = test: XTT assay in VHL-deficient RCC4 cells; assay type: cell-based; conditions: Homo sapiens, 96 h, XTT assay, VHL-deficient RCC4 cells, four days
Procedure: (§1) Cell Viability and XTT assays. For cell viability, 100,000 cells were plated in a 12-well plate. The following day, 1.25 μM STF-62247 was added in the presence or absence of 1 mM 3-MA for 24 hours at 37° C. Cells were trypsinized and counted by trypan blue exclusion. For XTT assays, 5000 RCC4 with and without VHL cells or 2,500 SN12C with and without VHL shRNA cells were plated in 96-well plates. The following day, vehicle (DMSO), STF-62247 or each of 19 analogs were added to media by serial dilution. Four days later, the media was aspirated and XTT solution containing 0.3 mg/ml of XTT (Sigma Chemical Co) in Phenol Red-free media, 20% FCS and 2.65 mg/ml N-methyl dibenzopyrazine methyl sulfate (PMS) was added to the cells and incubated at 37° C. for 1-2 hours. Metabolism of XTT was quantified by measuring the absorbance at 450 nm on a plate reader.

RCC4/VHL cells = test: XTT assay, RCC4/VHL versus RCC4 cells (selectivity ratio); assay type: cell-based; conditions: selectivity ratio, IC50 in RCC4/VHL cells/IC50 in RCC4 cells
Procedure: as §1
A. RCC4 and RCC4/VHL were treated with 1.25 μM of each 19 analogs for 20 hours and the presence of vacuoles was examined under light microscopy. B. Western blot for LC3 after treatment with each compound. Tubulin was used as loading control. Ratio is the relative from the IC50 in RCC4/VHL cells/IC50 in RCC4 cells. C. Acidic vesicle organelles (AVO) measured by FACS analysis in cells treated with 1.25 μM of STF-62247 or with compounds 21, 15, 25, 47, and 53 and stained with acridine orange.

Compound | melting point [°C] | IC50 (RCC4 cells; Table 1) [µM] | Ratio (RCC4/VHL cells; Table 1) | further results
Cc1cccc(Nc2nc(-c3cc[n+]([O-])cc3)cs2)c1 [Compound 188, N-(3-Methylphenyl)-4-(1-oxido-4-pyridinyl)-1,3-thiazol-2-amine] | 162 to 164 | – | – | IC50 (RCC4 cells; Table 2): > 40 µM
Cc1ccc(C(=O)Nc2nc(-c3ccncc3)cs2)cc1 [Compound 101, 4-Methyl-N-[4-(4-pyridinyl)-1,3-thiazol-2-yl]benzamide] | 238 to 241 | > 40 | – | –
FC(F)(F)c1cccc(Nc2nc(-c3ccncc3)cs2)c1 [Compound 19, 4-(4-Pyridinyl)-N-[3-(trifluoromethyl)phenyl]-1,3-thiazol-2-amine] | 239 to 241 | > 40 | – | –
COc1cc(Nc2nc(-c3ccncc3)cs2)cc(OC)c1OC [Compound 63, 4-(4-Pyridinyl)-N-(3,4,5-trimethoxyphenyl)-1,3-thiazol-2-amine] | 207 to 209 | > 40 | – | –
Cc1cccc(Nc2nc(-c3ccnc(N(C)C)c3)cs2)c1 [Compound 199, N,N-Dimethyl-4-{2-[(3-methylphenyl)amino]-1,3-thiazol-4-yl}-2-pyridinamine] | 148 to 150 | – | – | –
Cc1cccc(Nc2nc(-c3ccncc3)c[nH]2)c1 [Compound 196, N-(3-Methylphenyl)-4-(4-pyridinyl)-1H-imidazol-2-amine] | 170 to 171 | – | – | –
Cc1cccc(Nc2nc(-c3ccnc(N4CCN(C)CC4)c3)cs2)c1 [Compound 198, N-(3-Methylphenyl)-4-[2-(4-methyl-1-piperazinyl)-4-pyridinyl]-1,3-thiazol-2-amine] | 141 to 143 | – | – | –
COc1ccc(Nc2nc(-c3ccncc3)cs2)cc1O [Compound 51, 2-Methoxy-5-{[4-(4-pyridinyl)-1,3-thiazol-2-yl]amino}phenol] | 230 to 232 | – | – | –
CC(C)c1cccc(Nc2nc(-c3ccncc3)cs2)c1 [Compound 9, N-(3-Isopropylphenyl)-4-(4-pyridinyl)-1,3-thiazol-2-amine] | – | 17 | 1.4 | –
C#Cc1cc(-c2csc(Nc3cccc(C)c3)n2)ccn1 [Compound 159, 4-(2-Ethynyl-4-pyridinyl)-N-(3-methylphenyl)-1,3-thiazol-2-amine] | – | – | – | Ratio (RCC4/VHL cells; Table 2): >2.2; IC50 (RCC4 cells; Table 2): 17.8 µM
CCN(c1cccc(C)c1)c1nc(-c2ccncc2)cs1 [Compound 96, N-Ethyl-N-(3-methylphenyl)-4-(4-pyridinyl)-1,3-thiazol-2-amine] | – | 40 | 0.6 | –
Cc1cccc(Nc2nc(-c3ccnc(N4CCOCC4)c3)cs2)c1 [Compound 197, N-(3-Methylphenyl)-4-[2-(4-morpholinyl)-4-pyridinyl]-1,3-thiazol-2-amine] | 190 to 191 | – | – | –
CC(=O)c1cccc(Nc2nc(-c3ccncc3)cs2)c1 [Compound 125, 1-(3-{[4-(4-Pyridinyl)-1,3-thiazol-2-yl]amino}phenyl)ethanone] | – | 13 | >3.1 | –
Cc1cccc(Nc2nc(-c3cc(-c4ccccc4)nc4ccccc34)cs2)c1 [Compound 194, N-(3-Methylphenyl)-4-(2-phenyl-4-quinolinyl)-1,3-thiazol-2-amine] | – | – | – | Ratio (RCC4/VHL cells; Table 2): >1.6; IC50 (RCC4 cells; Table 2): 25.4 µM
Cc1cccc(Nc2nc(-c3ccncc3)c(CO)s2)c1 [Compound 74, [2-[(3-Methylphenyl)amino]-4-(4-pyridinyl)-1,3-thiazol-5-yl]methanol] | – | 7 | 2.4 | –
Cc1cccc(Nc2nc(-c3ccncc3)c(C(=O)N(C)C)s2)c1 [Compound 92, N,N-Dimethyl-2-[(3-methylphenyl)amino]-4-(4-pyridinyl)-1,3-thiazole-5-carboxamide] | – | 16 | >2.5 | –
Fc1ccc(Nc2nc(-c3ccncc3)cs2)cc1 [Compound 33, N-(4-Fluorophenyl)-4-(4-pyridinyl)-1,3-thiazol-2-amine] | – | 6 | >7 | –
Cc1cccc(Nc2nc(-c3ccnc(C#CCO)c3)cs2)c1 [Compound 161, 3-(4-{2-[(3-Methylphenyl)amino]-1,3-thiazol-4-yl}-2-pyridinyl)-2-propyn-1-ol] | – | – | – | Ratio (RCC4/VHL cells; Table 2): 1.6; IC50 (RCC4 cells; Table 2): 9.3 µM
